Among the data in patent publication US12569485B2, “SMARCA inhibitors and uses thereof” (Kymera Therapeutics, Inc., priority 2019, dated 2026) are IC50 values, retold here.

The structures appear in SMILES notation. Where a name gives a salt, the structure may show the parent alone.

The target of this assay is T1, SMARCA2 (Homo sapiens, UniProt P51531).
T1 construct: fused on or other part: His tag (6His), detected by the anti-6His terbium cryptate antibody
T1 sequence (P51531 whole entry, the tested form may be a part): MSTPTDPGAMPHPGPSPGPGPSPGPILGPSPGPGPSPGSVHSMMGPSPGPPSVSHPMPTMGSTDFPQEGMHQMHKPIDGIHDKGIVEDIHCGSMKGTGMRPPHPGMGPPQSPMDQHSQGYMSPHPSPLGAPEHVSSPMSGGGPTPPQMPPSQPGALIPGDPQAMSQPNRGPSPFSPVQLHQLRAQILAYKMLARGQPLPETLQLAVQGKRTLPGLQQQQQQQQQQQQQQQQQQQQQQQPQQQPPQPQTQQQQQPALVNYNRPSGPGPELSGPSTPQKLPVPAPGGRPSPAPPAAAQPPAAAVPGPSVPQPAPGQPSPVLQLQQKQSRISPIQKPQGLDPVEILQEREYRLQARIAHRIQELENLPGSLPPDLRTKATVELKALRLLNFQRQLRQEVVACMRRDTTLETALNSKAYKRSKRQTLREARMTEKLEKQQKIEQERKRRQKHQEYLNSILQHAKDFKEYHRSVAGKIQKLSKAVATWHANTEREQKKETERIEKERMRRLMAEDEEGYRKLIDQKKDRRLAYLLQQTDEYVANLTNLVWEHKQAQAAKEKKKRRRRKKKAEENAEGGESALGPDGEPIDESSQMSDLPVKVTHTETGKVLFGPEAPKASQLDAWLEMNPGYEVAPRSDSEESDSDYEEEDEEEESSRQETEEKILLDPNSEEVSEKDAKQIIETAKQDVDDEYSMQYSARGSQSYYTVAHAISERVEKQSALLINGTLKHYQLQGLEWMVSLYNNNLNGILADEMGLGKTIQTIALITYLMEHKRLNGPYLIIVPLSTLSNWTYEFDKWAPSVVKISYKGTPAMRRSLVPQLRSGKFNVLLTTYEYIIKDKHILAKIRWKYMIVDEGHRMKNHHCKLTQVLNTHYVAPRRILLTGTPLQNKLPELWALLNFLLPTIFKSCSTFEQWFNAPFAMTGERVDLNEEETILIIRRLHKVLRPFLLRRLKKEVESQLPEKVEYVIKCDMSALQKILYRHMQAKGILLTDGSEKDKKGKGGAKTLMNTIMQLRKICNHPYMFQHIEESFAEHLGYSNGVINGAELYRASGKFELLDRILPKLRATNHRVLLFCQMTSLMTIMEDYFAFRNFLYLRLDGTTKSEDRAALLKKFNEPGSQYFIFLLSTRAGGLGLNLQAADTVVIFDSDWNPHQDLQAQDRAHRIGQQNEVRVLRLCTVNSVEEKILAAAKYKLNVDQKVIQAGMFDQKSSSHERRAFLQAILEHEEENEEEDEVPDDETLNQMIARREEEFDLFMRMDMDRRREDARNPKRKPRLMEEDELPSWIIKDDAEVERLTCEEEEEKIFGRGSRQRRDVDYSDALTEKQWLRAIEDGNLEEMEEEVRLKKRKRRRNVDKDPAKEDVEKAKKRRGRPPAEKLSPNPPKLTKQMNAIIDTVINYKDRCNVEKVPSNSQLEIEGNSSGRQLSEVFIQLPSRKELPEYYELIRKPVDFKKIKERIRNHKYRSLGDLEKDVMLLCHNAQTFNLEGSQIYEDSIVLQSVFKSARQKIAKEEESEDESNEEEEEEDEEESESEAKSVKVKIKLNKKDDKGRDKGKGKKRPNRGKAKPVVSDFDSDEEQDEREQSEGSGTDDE
Briefly: SMARCA2 HTRF assay. The note with it: His-tagged SMARCA2-17, average, read-out: SMARCA2 binding Human HTRF: Average IC50. As to the method: Sample handling: 1× Epigenetics Buffer is prepared according to manufacturer's instructions. 32 nM SMARCA2-17 (4×) is prepared with Epigenetics Buffer. 4×Tb working solution is prepared by diluting Mab Anti 6His Tb cryptate Gold in PPI-Terbium Detection buffer to 0.21 ng/μ1 (100× dilution from stock). SMARCA2-mAb-Tb working solution is prepared by mixing equal volume of 32 nM SMARCA2 with Tb working solution. A half-hour timer is started. In a 96-well plate, serial dilution of compound DMSO solutions is prepared. […] of Epigenetics Buffer is placed to a second 96-well plate. 1 μl of the 100× compound DMSO solution is transferred to the second 96-well plate to make 4× compound working solution. 5 μl/well of 4× compound working solution is added into the 384-well plate and mixed well. […] of SMARCA2-mAb-Tb working solution is added into 384-well plate. The above mixtures are incubated at room temperature for 30 min. Data is collected and processed on EnVision. 520 nm/495 nm readouts ratio are calculated from raw data.
The letter codes for SMARCA2 average IC50 (μM) include: A (<1 μM), B (1-50 μM), C (51-200 μM), and D (>200 μM).
Background: Time-resolved FRET reads energy transfer from a long-lived donor to a nearby acceptor.
For `Oc1ccccc1-c1cc2c(nn1)[nH]c1ccc(C3CCNCC3)cc12` [I-114, 2-(6-(piperidin-4-yl)-9H-pyridazino[3,4-b]indol-3-yl)phenol], the IC50 (commonly the concentration at which inhibition is half-maximal) was under 1 µM.
Then `Oc1ccccc1-c1cc2c(nn1)NC[C@H]1CNCCN21` [I-108, (R)-2-(6,6a,7,8,9,10-hexahydro-5H-pyrazino[1′,2′:4,5]pyrazino[2,3-c]pyridazin-2-yl)phenol], with 1 to 50 µM; and `Oc1ccccc1-c1cc2c(nn1)NC[C@H]1CN(c3ncccn3)CCN21` [I-107, (S)-2-(8-(pyrimidin-2-yl)-6,6a,7,8,9,10-hexahydro-5H-pyrazino[1′,2′:4,5]pyrazino[2,3-c]pyridazin-2-yl)phenol], with under 1 µM.
Consider `Oc1ccccc1-c1cc2c(nn1)NC[C@@H]1CN(c3ncccn3)CCN21` [I-106, (R)-2-(8-(pyrimidin-2-yl)-6,6a,7,8,9,10-hexahydro-5H-pyrazino[1′,2′:4,5]pyrazino[2,3-c]pyridazin-2-yl)phenol], for which the IC50 is under 1 µM.
The figure for `C[C@@H]1c2c([nH]c3nnc(-c4ccccc4O)cc23)CCN1c1ncc(C2CCNCC2)cn1` [I-112, (R)-2-(5-methyl-6-(5-(piperidin-4-yl)pyrimidin-2-yl)-6,7,8,9-tetrahydro-5H-pyrido[3′,4′:4,5]pyrrolo[2,3-c]pyridazin-3-yl)phenol] is under 1 µM; for `Oc1ccccc1-c1ccc(NC2CCNCC2)nn1` [I-127, 2-[6-(4-piperidylamino)pyridazin-3-yl]phenol] it is 1 to 50 µM.
The figure for `Oc1ccccc1-c1cc2c(nn1)NCC1CNCCN21` (centres unmarked) [I-120, 2-(6,6a,7,8,9,10-hexahydro-5H-pyrazino[1′,2′:4,5]pyrazino[2,3-c]pyridazin-2-yl)phenol 2,2,2-trifluoroacetate] is 1 to 50 µM; for `C[C@H]1c2c([nH]c3nnc(-c4ccccc4O)cc23)CCN1c1ncc(C2CCNCC2)cn1` [I-113, (S)-2-(5-methyl-6-(5-(piperidin-4-yl)pyrimidin-2-yl)-6,7,8,9-tetrahydro-5H-pyrido[3′,4′:4,5]pyrrolo[2,3-c]pyridazin-3-yl)phenol] it is under 1 µM.
For `Nc1ncc(N2CCNC2=O)cc1N1CCNCC1` [I-71, 1-(6-amino-5-piperazin-1-yl-3-pyridyl)imidazolidin-2-one], the IC50 was over 200 µM.
Regarding `COCCNc1nnc(-c2ccccc2O)cc1N1CCNCC1` [I-101, 2-[6-(2-methoxyethylamino)-5-piperazin-1-yl-pyridazin-3-yl]phenol], the IC50 was over 200 µM.
The figure for `CC(=O)n1ncc2c(-c3cnn(C)c3)c(N)ncc21` [I-126, 1-[5-amino-4-(1-methylpyrazol-4-yl)pyrazolo[3,4-c]pyridine-1-yl]ethanone] is over 200 µM; for `O=C1Nc2nnc(-c3ccccc3O)cc2C12CCN(Cc1ccccc1)CC2` [I-121, 1′-benzyl-3-(2-hydroxyphenyl)spiro[7H-pyrrolo[2,3-c]pyridazine-5,4′-piperidine]-6-one] it is 1 to 50 µM; for `C[C@@H]1NCCc2[nH]c3nnc(-c4ccccc4O)cc3c21` [I-117] it is 51 to 200 µM.
Consider `CC(C)(C)OC(=O)N1CC=C(c2cc3c(=O)[nH]c4nnc(-c5ccccc5O)cc4n3c2)CC1` [I-124, tert-butyl 4-(2-(2-hydroxyphenyl)-6-oxo-5,6-dihydropyrrolo[1′,2′:4,5]pyrazino[2,3-c]pyridazin-8-yl)-5,6-dihydropyridine-1(2H)-carboxylate], for which the IC50 was in the range of 1 to 50 µM.
Then `C[C@H]1NCCc2[nH]c3nnc(-c4ccccc4O)cc3c21` [I-115, (R)-2-(5-methyl-6,7,8,9-tetrahydro-5H-pyrido[3′,4′:4,5]pyrrolo[2,3-c]pyridazin-3-yl)phenol], with 51 to 200 µM; and `O=c1[nH]c2nnc(-c3ccccc3O)cc2c2c1CNCC2` [I-2, 2-(2-hydroxyphenyl)-7,8,9,10-tetrahydro-5H-pyridazino[3,4-c][2,7]naphthyridin-6-one], with 1 to 50 µM; and `CC(=O)Nc1nnc(-c2ccccc2O)cc1N1CCNCC1` [I-102, N-[6-(2-hydroxyphenyl)-4-piperazin-1-yl-pyridazin-3-yl]acetamide], with 51 to 200 µM.
The figure for `C[C@H]1c2c([nH]c3nnc(-c4ccccc4O)cc23)CCN1c1nccc(C2CCNCC2)n1` [I-111, (S)-2-(5-methyl-6-(4-(piperidin-4-yl)pyrimidin-2-yl)-6,7,8,9-tetrahydro-5H-pyrido[3′,4′:4,5]pyrrolo[2,3-c]pyridazin-3-yl)phenol] is under 1 µM; for `Nc1ncc(N2C(=O)CCC2=O)cc1N1CCNCC1` [I-70, 1-(6-amino-5-(piperazin-1-yl)pyridin-3-yl)pyrrolidine-2,5-dione] it is over 200 µM; for `C[C@H]1c2c([nH]c3nnc(-c4ccccc4O)cc23)CCN1c1ncccn1` [I-118, (S)-2-(5-methyl-6-(pyrimidin-2-yl)-6,7,8,9-tetrahydro-5H-pyrido[3′,4′:4,5]pyrrolo[2,3-c]pyridazin-3-yl)phenol] it is under 1 µM.
The figure for `O=c1[nH]c2nnc(-c3ccccc3O)cc2c2c1CCNC2` [I-1, 9-(2-hydroxyphenyl)-1,2,3,4-tetrahydropyridazino[3,4-c][2,6]naphthyridin-5(6H)-one hydrochloride] is 1 to 50 µM; for `O=C1NCCc2[nH]c3nnc(-c4ccccc4O)cc3c21` [I-119, 3-(2-hydroxyphenyl)-6,7,8,9-tetrahydro-5H-pyrido[3′,4′:4,5]pyrrolo[2,3-c]pyridazin-5-one] it is 1 to 50 µM.
Turning to `Oc1ccccc1-c1cc(N2CCNCC2)c(NC2COC2)nn1` [I-128, 2-[6-(oxetan-3-ylamino)-5-piperazin-1-yl-pyridazin-3-yl]phenol], the IC50 was 51 to 200 µM.
With `O=C1Nc2nnc(-c3ccccc3O)cc2C12CCNCC2` [I-7, 3-(2-hydroxyphenyl)spiro[7H-pyrrolo[2,3-c]pyridazine-5,4′-piperidine]-6-one], the IC50 was over 200 µM.
On to `Oc1ccccc1-c1cc2c(cc3n2CCN(c2ncccn2)C3)nn1` [I-123, 2-(8-(pyrimidin-2-yl)-6,7,8,9-tetrahydropyrazino[1′,2′:1,5]pyrrolo[3,2-c]pyridazin-3-yl)phenol], for which the IC50 is 1 to 50 µM.
In the case of `O=C1Nc2nnc(-c3ccccc3O)cc2C12CCN(c1ccccc1)CC2` [I-64, 3-(2-hydroxyphenyl)-1′-phenyl-spiro [7H-pyrrolo[2,3-c]pyridazine-5,4′-piperidine]-6-one], the IC50 was in the range of 1 to 50 µM.
Consider `C[C@@H]1c2c([nH]c3nnc(-c4ccccc4O)cc23)CCN1c1nccc(C2CCNCC2)n1` [I-110, (R)-2-(5-methyl-6-(4-(piperidin-4-yl)pyrimidin-2-yl)-6,7,8,9-tetrahydro-5H-pyrido[3′,4′:4,5]pyrrolo[2,3-c]pyridazin-3-yl)phenol], for which the IC50 was under 1 µM.
The figure for `Nc1ncc(N2CCNCC2=O)cc1N1CCNCC1` [I-73, 1-(6-amino-5-piperazin-1-yl-3-pyridyl)piperazin-2-one] is over 200 µM; for `C[C@@H]1c2c([nH]c3nnc(-c4ccccc4O)cc23)CCN1c1ncccn1` [I-116, (R)-2-(5-methyl-6-(pyrimidin-2-yl)-6,7,8,9-tetrahydro-5H-pyrido[3′,4′:4,5]pyrrolo[2,3-c]pyridazin-3-yl)phenol] it is under 1 µM; for `CC(=O)Nc1cnc(N)c(-c2cnn(C)c2)c1C` [I-129, N-[6-amino-4-methyl-5-(1-methylpyrazol-4-yl)-3-pyridyl]acetamide] it is over 200 µM.
Turning to `Nc1ncc2c(Cl)cccc2c1N1CCNCC1` [I-74, 8-chloro-4-(piperazin-1-yl)isoquinolin-3-amine], the half-inhibitory concentration (IC50) is over 200 µM.
Then `O=c1[nH]c2nnc(-c3ccccc3O)cc2n2cc(C3CCNCC3)cc12` [I-125, 2-(2-hydroxyphenyl)-8-(piperidin-4-yl)pyrrolo[1′,2′:4,5]pyrazino[2,3-c]pyridazin-6(5H)-one], with 1 to 50 µM.
